Values after ≈ are worked out from the molar mass of the structure shown.

This test concerns Plasmodium falciparum. The test can be described thus: Antiplasmodial activity against Plasmodium falciparum 3D7. Format: functional, organism-based.
Broadly, the IC50 is the point on the concentration scale where inhibition reaches its midpoint. Read a low IC50 as greater potency. `CC(=O)Cc1cc(O)cc2oc(C)cc(=O)c12` returned an IC50 of 4.5 µg/mL (≈ 19.4 µM). Then `CC(=O)Cc1cc(O)cc2c1C(=O)CC(C)(Cc1cc(=O)c3c(CC(C)=O)cc(O)cc3o1)O2` (stereo not drawn) [CHROBISIAMONE A], with 2.6 µg/mL (≈ 5.6 µM). The compound `Cc1cc2cc(=O)cc3oc(C)cc(o1)c23` [ANHYDROBARAKOL] had an IC50 of 7.8 µg/mL (≈ 36.4 µM).

The record behind these values is ChEMBL document CHEMBL1157453, “Chrobisiamone A, a new bischromone from Cassia siamea and a biomimetic transformation of 5-acetonyl-7-hydroxy-2-methylchromone into cassiarin A” (Bioorg Med Chem Lett, 2008).
